From patent US20050238577A1, “Isolation of epithelial cells or their biochemical contents from excreta after in vivo isotopic labeling” (The Regents of the University of California, priority 2004, published 2005)

Assay: Tolerability of maintained 2H2O body water enrichment
Type: in vivo
Conditions: 1-10% of total body water labeled, maintained for weeks or months in humans (>100 people) and experimental animals; rapid changes in enrichment prevented
Source text: Relatively high body water enrichments of ^2H2O (e.g., 1-10% of the total body water is labeled) may be achieved relatively inexpensively using the techniques of the invention. […] This finding in a large number of human subjects (>100 people) is contrary to previous concerns about vestibular toxicities at high doses of ^2H2O. The Applicant has discovered that as long as rapid changes in body water enrichment are prevented (e.g., by initial administration in small, divided doses), high body water enrichments of ^2H2O can be maintained with no toxicities. For example, the low expense of commercially available ^2H2O allows long-term maintenance of enrichments in the 1-5% range at relatively low expense (e.g., calculations reveal a lower cost for 2 months labeling at 2% ^2H2O enrichment, and thus 7-8% enrichment in the alanine precursor pool, than for 12 hours labeling of ^2H-leucine at 10% free leucine enrichment, and thus 7-8% enrichment in leucine precursor pool for that period).

**Q.** For `[2H]O[2H]` [^2H2O, deuterated water], which “toxicity at maintained body water enrichment” value is on record?
**A.** without any evidence of toxicity
